Test results taken from article PMC12655819 (Pharmaceuticals, 2025).
Marks after values point to notes of the source that are not given here.

Experiments:
[1] = Pharmacokinetics from total plasma levels (tMPA, tMPAG), LC-MS/MS; format: in vivo, human; conditions: total plasma level
Protocol: (§1) The AUC0–4, Tmax, and Cmax parameters were calculated using the R (version 4.5.1) package software (R Core Team, 2025), supported by RStudio (version 2025.05.1+513) from Posit PBC software (Boston, MA, USA). […] The vMPA and vMPAG capillary blood levels were corrected using formulas validated in our department (partially published by Kocur et al.) and expressed as estimated capillary plasma concentrations. […] Individual PK profiles for each patient included in the study are provided in the Supplementary File (Figures S4 and S5).
Briefly, 50 μL of plasma was diluted with 90 μL of deionized water, and 10 μL of IS (d3-MPA) was added. Next, 400 μL of the precipitation mixture (a 0.1 M aqueous zinc sulfate solution and acetonitrile, 50:50 (v/v)) was added. The sample was then shaken for 10 min at room temperature using an automatic rotary vortex (Ohaus, Parsippany, NJ, USA) and centrifuged for 10 min at 13,500× g at 4 °C thereafter. The supernatant was transferred into chromatographic vials and analyzed using LC-MS/MS. Sample processing was performed at the Department of Drug Chemistry, Pharmaceutical and Biomedical Analysis, Medical University of Warsaw, Poland.
(§2) From each patient (if they consented to all sampling types), four samples were collected simultaneously at all defined time points of the dynamic PK profile (0, 0.5, 1, 2, and 4 h after drug administration). Whole blood was collected using standard venipuncture by a phlebotomist into a K3-EDTA test tube (Sarstedt, Nümbrecht, Germany). Plasma for analytical determination was obtained by centrifuging a portion of the whole blood and stored at −40 °C until assay. At the same time, 10 µL capillary blood samples were collected from a finger prick using the Mitra™ device (VAMS samples were stored in light-protected aluminum zip bags with desiccant at room temperature).

[2] = Pharmacokinetics from capillary blood collected with Mitra VAMS (vMPA, vMPAG); format: in vivo, human
Protocol: as §1
Subsequently, the tip (after at least 1 h of drying) was placed in an 1.5 mL Eppendorf-type test tube (Eppendorf AG, Hamburg, Germany) containing 150 μL of pure deionized water. Next, the test tube was shaken at room temperature for 1 h using the automatic rotary vortex. Subsequently, 10 μL of IS solution and 150 μL of the precipitation mixture were added. The sample was then processed as described in Section 4.3.4. Sample processing was carried out at the Department of Drug Chemistry, Pharmaceutical and Biomedical Analysis, Medical University of Warsaw, Poland [21].
as §2

[3] = cited from earlier work
[4] = Pharmacokinetics from liquid (wet) saliva collected with Salivette (sMPA, sMPAG); format: in vivo, human
Protocol: as §1
The concentrations of sMPA and sMPAG in saliva were determined using a previously described LC-MS/MS method. Briefly, 100 µL of saliva was used for analysis. […] Samples were vortexed and evaporated to dryness. The dry residues were reconstituted in 100 μL of a mobile phase consisting of a 1:4 (v/v) mixture of methanol and water, both of which contained 0.1% formic acid. After double centrifugation, the samples were analyzed using a Shimadzu Ultra-Performance Liquid Chromatography (UPLC) system (Shimadzu Co., Kyoto, Japan) coupled with a triple quadrupole mass spectrometer (LCMS-8030; Simadzu Co., Kyoto, Japan). The method was linear over the concentration range of 2–500 μg/L for both sMPA and sMPAG. This part of the work was carried out with the support of the Centre of Innovative Pharmaceutical Technology, Poznan University of Medical Sciences (Poznan, Poland).
Additionally, the unstimulated saliva samples were simultaneously collected using the Salivette® device (Sarstedt, Nümbrecht, Germany) and Mitra™ 20 µL microsampling tips (Neoteryx/Trajan, Torrance, CA, USA (all saliva samples simultaneously to plasma and capillary blood sampling: 0, 0.5, 1, 2, and 4 h after drug administration). Patients had not eaten for at least 30 min before saliva collection, and their mouths were rinsed with water. The study was conducted in accordance with the Declaration of Helsinki and the International Council for Harmonization Guideline for Good Clinical Practice. The protocol was approved by the Bioethics Committee of the Children’s Memorial Health Institute, Warsaw, Poland (approval No. 15/KBE/2023, with subsequent amendments). Written informed consent was obtained from all participants and their legal guardians.

[5] = Stability of analytes in dried saliva Mitra VAMS tips; format: physicochemical; conditions: dried saliva on Mitra VAMS tips, room temperature (light-protected with desiccant), n=6
Protocol: Stability testing, a crucial component of method development and validation, was conducted through various experiments, including storage stability in the autosampler and stability of analytes in VAMS tips under different stress conditions. Analyte stability is deemed acceptable if the differences stay within the nominal range of ±15%. Additionally, the reproducibility of the injection was assessed during autosampler stability testing.

[6] = Pharmacokinetics from plasma unbound levels in plasma ultrafiltrate (fMPA, fMPAG); format: in vivo, human; conditions: free level in plasma ultrafiltrate
Protocol: as §1
Next, the sample was centrifuged at 3000× g for 5 min at ambient conditions, and the supernatant was transferred into a chromatographic vial. Sample processing was performed at the Department of Drug Chemistry, Pharmaceutical and Biomedical Analysis, Medical University of Warsaw, Poland.
as §2

[7] = human, 0 h (pre-dose), n = 20, mean ± SD, read-out: C0 concentration
[8] = human, 0.5 h post-dose, n = 20, mean ± SD, read-out: C0.5 concentration
[9] = human, 1 h post-dose, n = 20, mean ± SD, read-out: C1 concentration
[10] = human, 2 h post-dose, n = 20, mean ± SD, read-out: C2 concentration
[11] = human, 4 h post-dose, n = 20, mean ± SD, read-out: C4 concentration
[12] = normalized to MMF dose, n = 20, mean (range)

COc1c(C)c2c(c(O)c1C/C=C(\C)CCC(=O)O)C(=O)OC2 [MPA, Mycophenolic acid]
Tmax ([1]; human, plasma, pediatric renal transplant recipients (n = 20) on MMF, mean (range), read-out: Tmax): 30 to 60 min
concentration at 0 h [1, 7]: 2150 ± 1620 ng/mL
concentration at 0.5 h [1, 8]: 10700 ± 9560 ng/mL
concentration at 1 h [1, 9]: 11400 ± 6810 ng/mL
concentration at 2 h [1, 10]: 4680 ± 3410 ng/mL
concentration at 4 h [1, 11]: 2230 ± 2390 ng/mL
Cmax ([1]; human, pediatric renal transplant recipients (n = 20) on MMF (CellCept), steady state, 0–4 h post-dose, mean (range), read-out: Cmax): 14400 ng/mL
AUC(0-t) ([1]; human, pediatric renal transplant recipients (n = 20) on MMF, mean (range)): 23800 ng·h/mL
AUC(0–4) Normalized to Drug Dose [1, 12]: 83.67 (22.44–447.22) ^d mg × h/mL × g
Tmax ([1]; pediatric renal transplant recipients (n = 20) on MMF, mean (range), listed as tMPA): 0.78 (0.50–1.00) h
concentration at 0 h [2, 7]: 1800 ± 1300 ng/mL
concentration at 0.5 h [2, 8]: 9660 ± 8960 ng/mL
concentration at 1 h [2, 9]: 10100 ± 5970 ng/mL
concentration at 2 h [2, 10]: 4430 ± 3000 ng/mL
concentration at 4 h [2, 11]: 1770 ± 2010 ng/mL
AUC(0-t) ([2]; human, corrected to estimated capillary plasma concentration, n = 20, mean (range)): 21400 ng·h/mL
Cmax ([2]; human, corrected to estimated capillary plasma concentration, pediatric renal transplant recipients (n = 20) on MMF, mean (range), read-out: Cmax): 12900 ng/mL
Tmax ([2]; human, pediatric renal transplant recipients (n = 20) on MMF, mean (range), read-out: Tmax): 46.8 min
AUC(0–4) Normalized to Drug Dose [2, 12]: 68.95 (20.71–444.79) ^d mg × h/mL × g
increase in free fraction ([3]; displacement by MPAG in severe renal impairment): 7%
affinity for plasma proteins (binding) ([3]; general statement of the introduction): 97–99%
time of peak plasma concentration after administration ([3]; plasma): 1 to 2 h
unbound fraction ([3]; typical range): 1 to 2.5%
concentration at 0 h ([4]; human, unstimulated, Salivette, wet saliva, 0 h (pre-dose), n = 20, mean ± SD, read-out: C0 concentration): 8.24 ± 5.66 ng/mL
concentration at 0.5 h ([4]; human, unstimulated, Salivette, wet saliva, 0.5 h post-dose, n = 20, mean ± SD, read-out: C0.5 concentration): 27.2 ± 7.86 ng/mL
concentration at 1 h ([4]; human, unstimulated, Salivette, wet saliva, 1 h post-dose, n = 20, mean ± SD, read-out: C1 concentration): 51.6 ± 45.8 ng/mL
concentration at 2 h ([4]; human, unstimulated, Salivette, wet saliva, 2 h post-dose, n = 20, mean ± SD, read-out: C2 concentration): 17.7 ± 16.1 ng/mL
concentration at 4 h ([4]; human, unstimulated, Salivette, wet saliva, 4 h post-dose, n = 20, mean ± SD, read-out: C4 concentration): 8 ± 9.49 ng/mL
AUC(0-t) ([4]; human, unstimulated, Salivette, wet saliva, pediatric renal transplant recipients (n = 20) on MMF, mean (range)): 107 ng·h/mL
Tmax ([4]; human, unstimulated, Salivette, wet saliva, pediatric renal transplant recipients (n = 20) on MMF, mean (range), read-out: Tmax): 51 min
Cmax ([4]; human, wet saliva (unstimulated, Salivette), pediatric renal transplant recipients (n = 20) on MMF, 0–4 h post-dose, mean (range), read-out: Cmax): 83.5 ng/mL
AUC(0–4) Normalized to Drug Dose ([4]; wet saliva, normalized to MMF dose, n = 20, mean (range)): 300.18 (32.29–2716.80) ^c µg × h/mL × g
recovery at 1 week ([5]; HQC): 97.2%
recovery at 2 weeks ([5]; HQC): 96%
recovery at 24 hours ([5]; HQC): 99.9%
recovery at 3 days ([5]; HQC): 100%
recovery at 1 week ([5]; LQC): 98%
recovery at 2 weeks ([5]; LQC): 95.6%
recovery at 24 hours ([5]; LQC): 101%
recovery at 3 days ([5]; LQC): 99.1%
AUC(0–4) Normalized to Drug Dose [6, 12]: 0.596 (0.042–1.577) ^d mg × h/mL × g
concentration at 0 h ([6]; human, plasma ultrafiltrate (unbound level in EDTA plasma), 0 h (pre-dose), n = 20, mean ± SD, read-out: C0 concentration): 22 ± 16 ng/mL
concentration at 0.5 h ([6]; human, plasma ultrafiltrate (unbound level in EDTA plasma), 0.5 h post-dose, n = 20, mean ± SD, read-out: C0.5 concentration): 104 ± 125 ng/mL
concentration at 1 h ([6]; human, plasma ultrafiltrate (unbound level in EDTA plasma), 1 h post-dose, n = 20, mean ± SD, read-out: C1 concentration): 149 ± 146 ng/mL
concentration at 2 h ([6]; human, plasma ultrafiltrate (unbound level in EDTA plasma), 2 h post-dose, n = 20, mean ± SD, read-out: C2 concentration): 49 ± 41 ng/mL
concentration at 4 h ([6]; human, plasma ultrafiltrate (unbound level in EDTA plasma), 4 h post-dose, n = 20, mean ± SD, read-out: C4 concentration): 31 ± 50 ng/mL
Cmax ([6]; human, plasma ultrafiltrate (unbound level in EDTA plasma), pediatric renal transplant recipients (n = 20) on MMF (CellCept), steady state, 0–4 h post-dose, mean (range), read-out: Cmax): 160 ng/mL
AUC(0-t) ([6]; human, plasma ultrafiltrate (unbound level in EDTA plasma), pediatric renal transplant recipients (n = 20) on MMF, mean (range)): 276 ng·h/mL
Tmax ([6]; human, plasma ultrafiltrate (unbound level in EDTA plasma), pediatric renal transplant recipients (n = 20) on MMF, mean (range), read-out: Tmax): 54 min
